PubChem BioAssay (NCI)
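Grown in 96-well plates, cells were treated for 48 hours with each compound at five concentrations. Insufficient inhibition: endpoint recorded as highest concentration tested. TGI is the concentration that stops growth completely.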

Experiments:
Test in all cases: NCI anticancer screen, dose series, 48 h
U251 CNS = tested on: U251 CNS
SK-OV-3 ovarian = tested on: SK-OV-3 ovarian
LOX IMVI melanoma = tested on: LOX IMVI melanoma
KM12 colon = tested on: KM12 colon
UACC-62 melanoma = tested on: UACC-62 melanoma
SNB-75 CNS = tested on: SNB-75 CNS
OVCAR-4 ovarian = tested on: OVCAR-4 ovarian
SW-620 colon = tested on: SW-620 colon
HCC-2998 colon = tested on: HCC-2998 colon
PC-3 prostate = tested on: PC-3 prostate

Cn1c(N)c(/C=N/NC(=O)CC#N)c(=O)n(C)c1=O
TGI (U251 CNS): > 100 µM
TGI (SK-OV-3 ovarian): > 100 µM
TGI (LOX IMVI melanoma): > 100 µM
TGI (KM12 colon): > 100 µM
TGI (UACC-62 melanoma): > 100 µM
TGI (SNB-75 CNS): > 100 µM
TGI (OVCAR-4 ovarian): > 100 µM
TGI (SW-620 colon): > 100 µM
TGI (HCC-2998 colon): > 100 µM
TGI (PC-3 prostate): > 100 µM

O=C1c2cc(Cl)ccc2-n2c(noc2=O)C2CSCN12 (stereo not given)
TGI (U251 CNS): > 100 µM
TGI (SK-OV-3 ovarian): > 100 µM
TGI (LOX IMVI melanoma): > 100 µM
TGI (KM12 colon): > 100 µM
TGI (UACC-62 melanoma): > 100 µM
TGI (SNB-75 CNS): > 100 µM
TGI (OVCAR-4 ovarian): > 100 µM
TGI (SW-620 colon): > 100 µM
TGI (HCC-2998 colon): > 100 µM
TGI (PC-3 prostate): > 100 µM

N#Cc1c(N)c(-c2ccc(Cl)cc2)c(F)c2ccccc12
TGI (U251 CNS): > 100 µM
TGI (SK-OV-3 ovarian): > 100 µM
TGI (LOX IMVI melanoma): > 100 µM
TGI (KM12 colon): > 100 µM
TGI (UACC-62 melanoma): > 100 µM
TGI (SNB-75 CNS): > 100 µM
TGI (OVCAR-4 ovarian): > 100 µM
TGI (SW-620 colon): > 100 µM
TGI (HCC-2998 colon): > 100 µM
TGI (PC-3 prostate): > 100 µM

CN(C)c1ccc(-c2nc(-c3cc4c(ccc5ccccc54)oc3=O)cs2)cc1
TGI (U251 CNS): > 100 µM
TGI (SK-OV-3 ovarian): > 100 µM
TGI (LOX IMVI melanoma): > 100 µM
TGI (KM12 colon): > 100 µM
TGI (UACC-62 melanoma): > 100 µM
TGI (SNB-75 CNS): > 100 µM
TGI (OVCAR-4 ovarian): > 100 µM
TGI (SW-620 colon): > 100 µM
TGI (HCC-2998 colon): > 100 µM
TGI (PC-3 prostate): > 100 µM

O=C(c1ccccc1F)c1c(NCc2ccccc2)c(=O)c1=O
TGI (U251 CNS): > 100 µM
TGI (SK-OV-3 ovarian): > 100 µM
TGI (LOX IMVI melanoma): > 100 µM
TGI (KM12 colon): > 100 µM
TGI (UACC-62 melanoma): > 100 µM
TGI (SNB-75 CNS): > 100 µM
TGI (OVCAR-4 ovarian): > 100 µM
TGI (SW-620 colon): > 100 µM
TGI (HCC-2998 colon): > 100 µM
TGI (PC-3 prostate): > 100 µM

COc1ccc(C2CC(c3c(C)nn(-c4ccccc4)c3-c3ccc(C)cc3O)=NN2c2ccccc2)cc1 (stereo not given)
TGI (U251 CNS): > 100 µM
TGI (SK-OV-3 ovarian): > 100 µM
TGI (LOX IMVI melanoma): > 100 µM
TGI (KM12 colon): > 43.7 µM
TGI (UACC-62 melanoma): > 100 µM
TGI (SNB-75 CNS): > 100 µM
TGI (OVCAR-4 ovarian): > 100 µM
TGI (SW-620 colon): > 100 µM
TGI (HCC-2998 colon): > 100 µM
TGI (PC-3 prostate): > 100 µM

COc1ccccc1C(=O)c1c(N2CCCCC2)c(=O)c1=O
TGI (U251 CNS): > 100 µM
TGI (SK-OV-3 ovarian): > 100 µM
TGI (LOX IMVI melanoma): > 100 µM
TGI (KM12 colon): > 100 µM
TGI (UACC-62 melanoma): > 100 µM
TGI (SNB-75 CNS): > 100 µM
TGI (OVCAR-4 ovarian): > 100 µM
TGI (SW-620 colon): > 100 µM
TGI (HCC-2998 colon): > 100 µM
TGI (PC-3 prostate): > 100 µM

[N-]=[N+]=NC1(c2ccccc2)C(=O)Nc2ccccc2C1=O (stereo not given)
TGI (U251 CNS): > 100 µM
TGI (SK-OV-3 ovarian): > 100 µM
TGI (LOX IMVI melanoma): > 100 µM
TGI (KM12 colon): > 100 µM
TGI (UACC-62 melanoma): 76.3 µM
TGI (SNB-75 CNS): > 100 µM
TGI (OVCAR-4 ovarian): > 100 µM
TGI (SW-620 colon): 82.4 µM
TGI (HCC-2998 colon): > 100 µM
TGI (PC-3 prostate): > 100 µM
